Source: patent publication US10220022B2, “Compositions and methods employing Wolbachia FtsZ as a target for Albendazole sulfone” (The Regents of the University of California, priority 2011, dated 2019)

Legend:
[1] = tested on: beta-tubulin; details: relative to Albendazole sulfoxide; cited from earlier work
[2] = tested on: Wolbachia; experiment: Wolbachia titer in Drosophila oogenesis after drug feeding; assay type: in vivo; details: 24-hour treatment, counts from single oocyte focal planes; DMSO control 225+/−18
Source text: (§1) Drug feeding conditions: Fly feeding we done as previously described.
(§2) Staining: Drosophila Ovary staining was done with PI, anti-tubuli. Drosophila Embryo staining was done with anti-FtsZ. Brugia microfilarial staining was done with PI, anti-tubulin, and anti-FtsZ.
As Albendazole is already a widely used, FDA-approved drug, we proceeded to test it and the primary metabolites Albendazole sulfoxide and Albendazole sulfone for anti-Wolbachia effects in Drosophila oogenesis. This system provides a high-precision method for assessing Wolbachia titer in a well-characterized developmental context.

[3] = tested on: oocyte microtubule cytoskeleton; experiment: Posterior Wolbachia localization in treated oocytes; assay type: in vivo; details: treated Drosophila oocytes; DMSO controls 95%
Source text: as §1, §2
(§3) To address whether Albendazole sulfone acts on Wolbachia by disrupting the oocyte microtubule cytoskeleton, a combination of approaches was used. It has previously been shown that Wolbachia concentrate at the oocyte posterior cortex in a microtubule-dependent manner. […] We also examined the cytoskeleton directly by immunolabeling the microtubules.

[4] = tested on: B. malayi microtubules; experiment: Microtubule staining of treated Brugia malayi microfilariae; details: compound fed to Brugia malayi microfilariae
Source text: as §2
(§4) To investigate whether Albendazole sulfone disrupts Walbachia FtsZ, we fed this compound to Brugia malayi microfilariae, which carry Wolbachia as an essential endosymbiont. […] This is consistent with the predicted benzimidazole susceptibility of B. malayi beta tubulin (FIG. 5).
(§5) In view of the above the inventors posed the questions: By what mechanism does Albendazole sulfone act against Wolbachia FtsZ? And is FtsZ disruption a consequence of host microtubule disassembly, or due to a separate effect on FtsZ by Albendazole sulfone? […] To further test whether Wolbachia FtsZ relies on host microtubules, we also treated Brugia with the microtubule-disrupting drug Colchicine.

[5] = tested on: oocyte microtubule cytoskeleton; experiment: Immunolabeling of oocyte microtubules; assay type: in vivo, Drosophila; details: immunolabeling of the microtubules, stage 10A oocytes
Source text: as §2, §3

[6] = tested on: Wolbachia FtsZ; experiment: FtsZ immunostaining in treated Brugia malayi microfilariae; details: compound fed to Brugia malayi microfilariae
Source text: as §2, §4, §5

[7] = molecular target: M. tuberculosis FtsZ (Mycobacterium tuberculosis, UniProt P9WN95); details: cited from earlier work
M. tuberculosis FtsZ, sequence (P9WN95 whole entry): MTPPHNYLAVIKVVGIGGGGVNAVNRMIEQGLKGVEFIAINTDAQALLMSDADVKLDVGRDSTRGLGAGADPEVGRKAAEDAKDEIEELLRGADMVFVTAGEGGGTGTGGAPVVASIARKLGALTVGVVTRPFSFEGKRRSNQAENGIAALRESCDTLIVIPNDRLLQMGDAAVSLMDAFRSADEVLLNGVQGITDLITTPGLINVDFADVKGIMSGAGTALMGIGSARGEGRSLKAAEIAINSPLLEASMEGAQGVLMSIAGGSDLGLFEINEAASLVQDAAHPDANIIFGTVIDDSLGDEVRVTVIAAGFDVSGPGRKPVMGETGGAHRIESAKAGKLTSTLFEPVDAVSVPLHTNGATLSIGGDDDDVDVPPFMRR

[8] = tested on: Wolbachia-infected JW18 cells; experiment: High-throughput screen for compounds reducing Wolbachia infection of JW18 cells; assay type: cell-based, Drosophila; details: 100 uM per well, 5-day incubation at 25 C, 3 replicates
Method: Cells were plated in 384-well, clear bottom plates (Griener Bio-one) pre-coated with 0.5 mg/mL Concanavalin A. JW18 cells were added to 22 columns, and JW18TET cells were added to the remaining 2 columns at a dilution of 6500 cells per well. After the cells adhered to the plates, compounds were transferred into 20 columns of JW18 cells in the center of the plate using a Janus MDT pin tool. The final concentration of compound was 100 uM per well. All treatments were distributed into 3 plate replicates.
After a 5-day incubation with the compounds at 25 C, the cells were prepared for imaging. Cells were fixed for 20 minutes in 4% formaldehyde and rinsed with PBS using an automated BioTek liquid handler. All staining solutions were administered using a Multidrop robot, with extensive rinsing between treatments. The primary antibody, mouse anti histone (MAB052, Millipore), was used at 1:1250 in PBS/0.1% Triton. Secondary antibody goat anti-mouse Alexa 594 (Invitrogen) was used at 1:1250. DAPI was used as a saturated solution, diluted to a final concentration of 1:40. After staining, PBS+Azide was added to all wells of the plates.
Stained treatment plates were imaged using the MetaExpress Micro system (Molecular Devices, Sunnyvale Calif.). 10 images were acquired per well at 40× magnification. These images were next analyzed using customized journaling software provided by Molecular Devices. The journal first masks any areas where clumps of cells are detected, based upon intensity of the Jupiter-GFP. The boundaries of the remaining cells and their nuclei are recognized based upon the Jupiter-GFP and anti-histone stains. A mask is applied to the nuclei, to obscure the hi stone and DAPI signal from those areas. A threshold for DAPI fluorescence detection is set to detect as much Wolbachia as possible in JW18 control cells while minimizing detection of background DAPI signal in JW18TET control cells. Then this cytoplasmic DAPI level, read to indicate Wolbachia, is scored in the cytoplasm of individual cells to determine whether each cell is infected with Wolbachia. The cutoff value distinguishing “infected” from “uninfected” cells is 4000-5000 fluorescence units per cell.
A spreadsheet from the journal indicates the quantity of Wolbachia-infected cells versus total cells measured in each well. A Z′ factor is calculated for each plate based upon the average frequency of cell infection for JW18 and JW18TET control cells. […] An initial hit range is calculated to lie between the JW18 average infection frequency−3 standard deviations, and the average JW18TET infection frequency+3 standard deviations. To further refine identification of hits, we also calculated an average infection frequency for all JW18 cells on the plate (treated or not), as most treatment wells are expected to be indistinguishable from untreated controls. Wells are that lie within 3 standard deviations of the mean are exluded, and remaining wells are classified as hits within that replicate. Hit wells that are identified in at least 2 out of 3 replicates are considered to be finalized hits.
In this screen, 3081 compounds froth the National Cancer Institute were used. […] Cells were incubated for 5 days with each compound, then fixed, stained, and imaged using automated robotics (FIG. 2). Customized analysis software was used to compare the images from compound-treated wells to the control cells to assay for significant changes in the quantity of Wolbachia-infected cells. All treatment plates were run in triplicate.

[9] = tested on: Streptococcus pyrogenes; details: prior screen; cited from earlier work

For `CCCS(=O)(=O)c1ccc2nc(NC(=O)OC)[nH]c2c1` [Albendazole sulfone], the “potency as disrupter of beta-tubulin” value [1] is listed as “far less potent disrupter of beta-tubulin than Albendazole sulfoxide”, the Wolbachia per oocyte [2] is listed as 150+/−13 Wolbachia per oocyte and the “oocytes with posterior Wolbachia localization” value [3] is listed as 93%. The “effect on Brugia host microtubules” value [4] was “widespread disruption of B. malayi microtubules”, the oocyte microtubule structure [5] was “fibrillar microtubule arrays” and the “effect on Wolbachia FtsZ” value [6] was “FtsZ was also disrupted in most”.
With `CCC[S+]([O-])c1ccc2[nH]c(NC(=O)OC)nc2c1` (stereo not drawn) [Albendazole sulfoxide] the Wolbachia per oocyte [2] was 255+/−27 Wolbachia per oocyte.
In the case of `CCCSc1ccc2nc(NC(=O)OC)[nH]c2c1` [Albendazole], the Wolbachia per oocyte [2] is listed as 194+/−20 Wolbachia per oocyte and the “effect on M. tuberculosis FtsZ” value [7] is listed as “unaffected”.
With `CC[C@@]1(O)C[C@H](O[C@H]2C[C@H](N(C)C)[C@H](O[C@H]3C[C@@H]4O[C@H]5CC(=O)[C@H](C)O[C@H]5O[C@@H]4[C@H](C)O3)[C@H](C)O2)c2c(cc3c(c2O)C(=O)c2c(O)ccc(O)c2C3=O)[C@H]1C(=O)OC` [Cinerubin B] the “reduction of Wolbachia-infection frequency (screen hit)” value (“reduction” for short) [8] was “hits”.
With `COc1cc2c(c(OC)c1OC)-c1ccc(OC)c(=O)cc1[C@@H](NC(C)=O)CC2` [Colchicine, reference compound] the “oocytes with posterior Wolbachia localization” value [3] was 21%, the “effect on Brugia host microtubules” value [4] was “severely disrupted host microtubules” and the oocyte microtubule structure [5] was “devoid of filamentous structure”. The “effect on Wolbachia FtsZ” value [6] was “FtsZ remained concentrated near Wolbachia DNA”.
In the case of `C[C@H]1c2cccc(O)c2C(=O)C2=C(O)[C@]3(O)C(=O)C(C(N)=O)=C(O)[C@@H](N(C)C)[C@@H]3[C@@H](O)[C@@H]21` [Doxycycline], the Wolbachia per oocyte [2] is reported as 126+/−11 Wolbachia per oocyte.
In the case of `COC1=C(C)C(=O)C2=C(C1=O)[C@H](COC(N)=O)[C@@]1(O)[C@@H]3[C@H](CN21)N3C` (stereo partly drawn) [Mitomycin B], the “reduction” value [8] is reported as “hits”.
In the case of `CCN1/C(=C/C(C)=C/c2sc3ccccc3[n+]2CC)Sc2ccccc21.[I-]` [NSC96932], the antibacterial activity [9] is given as “exert antibacterial activity” and the “reduction” value [8] is given as “hits”.
With `O=[N+]([O-])/C=C/c1cc2ccccc2[nH]1` [NSC150982] the “reduction” value [8] was “anti-Wolbachia”.
In the case of `CN1CCN(c2ccc([N+](=O)[O-])c3no[n+]([O-])c23)CC1` [NSC207895], the “reduction” value [8] is reported as “hits”.
With `O=C(CSc1nc2ccccc2s1)c1sc2sc3ccccc3[n+]2c1O` [NSC339601] the “reduction” value [8] was “anti-Wolbachia”.
